# Source: patent EP0751768B1, “ANTI-VIRAL AND ANTI-CANCER AGENT” (Radopath Pharmaceuticals International Limited, priority 1994, dated 1995)
# Read-outs that look alike come from different tables or passages of the source.
# Tests used:
# [1] = Anti-tumour activity against M5076 solid tumour (tumour weight inhibition); type: in vivo, murine; settings: mouse, in vivo; ip, per day, in corn oil; M5076 study; read-out: Maximum tolerated dose
# Description: (§1) The in vivo anti-tumour responses of the compound according to the invention were assessed against the ascitic tumours, MAC15A murine colon adenocarcinoma and various solid tumour models. The MAC15A ascites tumour cells were transplanted into male NMR1 mice by ip innoculation at a cell density of 1 x 10^5 cells in 200µl buffer (Table I). The solid tumour models included the MAC13 and MAC16 murine colon adenocarcinomas, the B16 F1 murine melanoma and the M5076 reticulum cell sarcoma.
# (§2) Treatment commenced 3 days after ip transplant or, in the case of solid tumours such as MAC13 and MAC16, treatment commenced when average tumour volumes reached 40mm^3.
# (§3) The animals were located in both cases into groups of 5 to 8 animals.
# (§4) The animals were sacrificed after 12 days or when tumours ulcerated, tumour volume exceeded 1000mm^3 or loss of body weight exceeded 50%.
# (§5) Except where otherwise stated, the compound used was dissolved in DMSO and diluted in sterile distilled water, at appropriate concentrations before administration in a solvent volume of 200µl. Anti-tumour responses were obtained by comparing the median survival times or tumour growth inhibition against solvent controls.
# (§6) % Tumour Weight Inhibition:-
# [2] = tested on: M5076-reticulum cell sarcoma; assay: as above; type: in vivo, murine; settings: for % Tumour Weight Inhibition: days 1,2,3,4,5,6,7,8,9, 16 days after im transplant, corn oil
# Description: as §1, §2, §3, §4, §5, §6
# HIV-I IIIB = assay: Acute infection assay, HIV core antigen ELISA (HIV-I IIIB); type: cell-based
# B16 murine melanoma = assay: Anti-tumour activity of C17 against B16 melanoma (tumour weight inhibition); type: in vivo, female C57/black mice
# HIV-1 infection = assay: Pilot study of C17 in patients with HIV-1 infection and HIV-related Kaposi's sarcoma; type: in vivo, humans; design: CD4 ABS / CD8 ABS: unit not given here
# [3] = In vitro anti-tumour activity; type: cell-based; settings: compound appears to require activation in the liver
# [4] = mice, preliminary data
# [5] = rats, preliminary data
# in vivo [6] = settings: mouse, iv
# in vivo [7] = settings: rat, iv
# in vitro = settings: CC50 (Toxicity)
# [8] = day 7, MTD by 5 consecutive daily intravenous injections
compound,measurement,setting,value
"COC(=O)c1cc([N+](=O)[O-])c(Cl)c([N+](=O)[O-])c1Cl [C3, 2,4-dichloro-3,5-dinitrobenzoic acid methyl ester]",MTD,[1],1 mg/kg
same,anti-tumour activity (in words),[2],without anti-tumour activity
same,% Tumour Weight Inhibition,[2]; 0.25 mg/kg per day ip,42%
same,% Tumour Weight Inhibition,[2]; 0.5 mg/kg per day ip,39%
same,% Tumour Weight Inhibition,[2]; 1.0 mg/kg per day ip,41%
same,increase in toxicity,"[2]; relative to 2,4-dichloro-3,5-dinitrobenzoic acid",10 fold
same,SI (Selectivity Index),HIV-I IIIB,23
same,CC50,uninfected cells,7 µM
"O=C(O)c1cc([N+](=O)[O-])ccc1Cl [C17, 2-chloro-5-nitrobenzoic acid]",% Tumour Weight Inhibition,"B16 murine melanoma; 700 mg/kg per day ip, days 1,2,3,4,5,6, 12 days after sc transplant, 6 animals per group",62%
same,anti-tumour activity in vivo (in words),B16 murine melanoma; refers to Table 6,considerable anti-tumour activity
same,CD4 ABS,"HIV-1 infection; Patient 1, After (day 20), Before (day 1): 0.399, 10mg/kg body weight/day im 5 days weekly",0.760
same,CD8 ABS,"HIV-1 infection; Patient 1, After (day 20), Before (day 1): 0.567, 10mg/kg body weight/day im 5 days weekly",0.840
same,CD4/CD8,"HIV-1 infection; Patient 1, After (day 20), Before (day 1): 0.70, 10mg/kg body weight/day im 5 days weekly",0.90
same,Lymphocytes,"HIV-1 infection; Patient 1, After (day 20), Before (day 1): 2.1, 10mg/kg body weight/day im 5 days weekly",2.0 x 10^3mm^-3
same,CD4 %,"HIV-1 infection; Patient 1, After (day 20), Before (day 1): 19, 10mg/kg body weight/day im 5 days weekly",38%
same,CD4 ABS,"HIV-1 infection; Patient 2, After (day 14), Before (day 1): 0.360, 10mg/kg body weight/day im 5 days weekly",0.513
same,CD4/CD8,"HIV-1 infection; Patient 2, After (day 14), Before (day 1): 0.38, 10mg/kg body weight/day im 5 days weekly",0.59
same,CD8 ABS,"HIV-1 infection; Patient 2, After (day 14), Before (day 1): 0.940, 10mg/kg body weight/day im 5 days weekly",0.874
same,Lymphocytes,"HIV-1 infection; Patient 2, After (day 14), Before (day 1): 2.0, 10mg/kg body weight/day im 5 days weekly",1.9 x 10^3mm^-3
same,CD4 %,"HIV-1 infection; Patient 2, After (day 14), Before (day 1): 18, 10mg/kg body weight/day im 5 days weekly",27%
same,CD4 ABS,"HIV-1 infection; Patient 3, After (day 20), Before (day 1): 0.072, 10mg/kg body weight/day im 5 days weekly",0.187
same,CD8 ABS,"HIV-1 infection; Patient 3, After (day 20), Before (day 1): 0.270, 10mg/kg body weight/day im 5 days weekly",0.682
same,CD4/CD8,"HIV-1 infection; Patient 3, After (day 20), Before (day 1): 0.27, 10mg/kg body weight/day im 5 days weekly",0.27
same,Lymphocytes,"HIV-1 infection; Patient 3, After (day 20), Before (day 1): 0.9, 10mg/kg body weight/day im 5 days weekly",1.1 x 10^3mm^-3
same,CD4 %,"HIV-1 infection; Patient 3, After (day 20), Before (day 1): 8, 10mg/kg body weight/day im 5 days weekly",17%
same,CD4/CD8,"HIV-1 infection; Patient 4, After (day 14), Before (day 1): 0.08, 10mg/kg body weight/day im 5 days weekly",0.35
same,CD4 ABS,"HIV-1 infection; Patient 4, After (day 14), Before (day 1): 0.108, 10mg/kg body weight/day im 5 days weekly",0.440
same,CD8 ABS,"HIV-1 infection; Patient 4, After (day 14), Before (day 1): 1.350, 10mg/kg body weight/day im 5 days weekly",1.260
same,Lymphocytes,"HIV-1 infection; Patient 4, After (day 14), Before (day 1): 1.8, 10mg/kg body weight/day im 5 days weekly",2.0 x 10^3mm^-3
same,CD4 %,"HIV-1 infection; Patient 4, After (day 14), Before (day 1): 6, 10mg/kg body weight/day im 5 days weekly",22%
same,CD4/CD8,"HIV-1 infection; Patient 5, After (day 21), Before (day 1): 0.56, 10mg/kg body weight/day im 5 days weekly",0.66
same,CD4 ABS,"HIV-1 infection; Patient 5, After (day 21), Before (day 1): 0.812, 10mg/kg body weight/day im 5 days weekly",1.023
same,CD8 ABS,"HIV-1 infection; Patient 5, After (day 21), Before (day 1): 1.456, 10mg/kg body weight/day im 5 days weekly",1.550
same,Lymphocytes,"HIV-1 infection; Patient 5, After (day 21), Before (day 1): 2.8, 10mg/kg body weight/day im 5 days weekly",3.1 x 10^3mm^-3
same,CD4 %,"HIV-1 infection; Patient 5, After (day 21), Before (day 1): 29, 10mg/kg body weight/day im 5 days weekly",33%
same,CD4/CD8,"HIV-1 infection; Patient 6 (AIDS-related Kaposi's sarcoma), After (day 34), Before (day 1): 0.31, 10mg/kg body weight/day im 5 days weekly",0.47
same,CD4 ABS,"HIV-1 infection; Patient 6 (AIDS-related Kaposi's sarcoma), After (day 34), Before (day 1): 0.378, 10mg/kg body weight/day im 5 days weekly",0.437
same,CD8 ABS,"HIV-1 infection; Patient 6 (AIDS-related Kaposi's sarcoma), After (day 34), Before (day 1): 1.218, 10mg/kg body weight/day im 5 days weekly",0.931
same,Lymphocytes,"HIV-1 infection; Patient 6 (AIDS-related Kaposi's sarcoma), After (day 34), Before (day 1): 2.1, 10mg/kg body weight/day im 5 days weekly",1.9 x 10^3mm^-3
same,CD4 %,"HIV-1 infection; Patient 6 (AIDS-related Kaposi's sarcoma), After (day 34), Before (day 1): 18, 10mg/kg body weight/day im 5 days weekly",23%
same,sarcoma lesions (in words),"HIV-1 infection; Patient 6, AIDS-related Kaposi's sarcoma",disappeared
same,CD4 counts (in words),"HIV-1 infection; all 6 patients, about 2 weeks after the beginning of the therapy, 10mg/kg body weight/day im 5 days weekly",showed an increase
same,patient general condition (in words),HIV-1 infection; including weight gain and a marked decrease in opportunistic infections and diarrhea,clinical improvements
same,anti-tumour activity in vitro (in words),[3],could not be supported in vitro
same,"red blood cell count, haemoglobin concentration, macrophage count, white blood cell count (WBC), lymphocyte count and haematocrit (HTC)",[4]; [8],increases
same,"red blood cell count, haemoglobin concentration, macrophage count, white blood cell count (WBC), lymphocyte count and haematocrit (HTC)",[4]; day 14,returned to normal
same,"red blood cell count, haemoglobin concentration, macrophage count, white blood cell count (WBC), lymphocyte count and haematocrit (HTC)",[5]; [8],increases
same,"red blood cell count, haemoglobin concentration, macrophage count, white blood cell count (WBC), lymphocyte count and haematocrit (HTC)",[5]; day 14,returned to normal
same,MTD at 5 days,in vivo [6],950 mg/kg/day
same,MTD at 5 days,in vivo [7],900 mg/kg/day
same,CC50,in vitro,> 1000 µM
